# Data as given in patent publication US8486968B2, “Compounds” (Boehringer Ingelheim International GmbH, priority 2010, dated 2013).
# Assays:
# mPGES-1 [1] = molecular target: T1, mPGES-1 (Homo sapiens, UniProt O14684); assay: mPGES-1 enzyme assay (HTRF detection of PGE2); format: biochemical; parameters: made in house; host or cells: Rosetta E. coli (membrane/microsome fraction)
# T1 sequence (O14684 1-152): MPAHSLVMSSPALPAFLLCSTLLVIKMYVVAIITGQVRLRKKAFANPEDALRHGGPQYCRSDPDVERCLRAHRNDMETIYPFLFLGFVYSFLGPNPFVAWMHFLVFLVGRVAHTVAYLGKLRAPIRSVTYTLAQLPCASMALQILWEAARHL
# Experimental: Microsomes from Rosetta E. coli bacteria expressing recombinant human mPGES-1 can be derived as described below:
# Inoculate 5 ml LB with Ampicilin (50 μg/ml) and Chloramphenicol (34 μg/ml) with bacteria from freeze culture. Incubate 8 h at 37° C. with 200 rpm. Thereafter, inoculate 500-1000 ml LB containing Amp and Chloro with the 5 ml on culture and grow to OD640 of 0.8-1.0. Chill the culture to +4° C. before induction. Induce the culture with IPTG at a final concentration of 400 μM. Express the protein at room temp 18-23° C. with 200 rpm shaking over night.
# The following steps can be performed on the following day: • 1. Spin down the cells in 250 ml centrifuge flasks for 15 min at 7000 rpm (Beckmann Coulte Avanti J-E centrifuge) • 2. Dissolve the pellet from 250 ml culture in 12.5 ml homogenization buffer • 3. (15 mM Tris-HCL pH8, 1 mM EDTA pH8, […], 2.5 mM GSH, 1 Tablet Protease inhibitor per 50 ml buffer) • 4. Disintegrate the cells by sonication, 5×10 seconds at 48% amplitude of a 750 W sonifier • 5. Add 2.5 ml MgCl2 (100 mM) and DNase 12.5 μl (0.8 mg/ml) and incubate on ice for 30 min • 6. Spin down the bacteria debris and save the supernatant, 7000 rpm for 15 min • 7. Isolate the protein containing membranes in the supernatant by ultracentrifugation 120000×g for 2 hour at 4° C. (Sorvall T880 rotor). • 8. Discard the supernatant and dissolve the pellet in 20 mM Potassium phosphate buffer pH 7.4 (KH2PO4 and K2HPO4) buffer by sonication (5×10 s, 30% of a 50 W sonifier) and aliquot the enzyme and store aliquots at −80° C.
# Before each experiment is performed an aliquot of the enzyme is thawed and it can then be dissolved in 0.1 M Potassium phosphate buffer pH7.4 (KH2PO4 and K2HPO4) buffer containing 2.5 mM GSH.
# The aim of this assay is the determine the affinity of a test compound for the mPGES-1 enzyme.
# 47 μl of recombinant human mPGES-1 (˜0.5 μg protein/well) containing microsomal suspension in a buffer containing GSH, (2.5 mmol/L L-Glutathione reduced, dissolved in 0.1 mol/L Phosphat Buffer pH 7.4) is dispensed in a 384-well plate and thereafter 1 μl of the test compound(s) is/are added and incubated for 25 minutes at room temperature. The enzyme reaction is started by the addition of 2 μl PGH2 (final conc. 2 μM) dissolved in water-free Diglyme. After 60 seconds the reaction is terminated by addition of a stop solution containing FeCl2 (10 μL 0.074 mol/l FeCl2). The samples are diluted between 1:25 in PBS (Phosphate Buffered Saline). 10 μl of the diluted samples are transferred to 384-well low volume plate. In order to quantify the amount of PGE2 that has been formed, a homogenous time resolved fluorescent (HTRF) detecting of PGE2 has been performed using a commercially available kit from Cisbio according to the manufactures recommendation. This HTRF-based assay has been described in detail (see: Goedken et al., J Biomol Screen, 2008, 13(7), 619-625). Briefly, the diluted samples are mixed with 5 μl PGE2-d2 conjungate and 5 μl anti-PGE2 cryptate conjungate. After an incubation period of the plates over night, the fluorescence is measured by the use of an appropriate microplate reader.
# The fluorescence of Europium cryptate (maxex=307 nm, maxem=620 nm) and d2-PGE2 (maxex=620 nm, maxem=665 nm) are measured.
# The extent of the specific HTRF is measured as a ratio of the emission intensity at 665 nm vs. that at 620 nm at an excitation puls of 320 nm. The quantification plate contains also wells with different concentrations of PGE2 as calibration curve for the calculation of the PGE2 concentrations from the HTRF ratio values.
# From all mPGES enzyme assay the background is subtracted and the IC50 is calculated over a nonlinear regression with conventional software.
# mPGES-1 [2] = molecular target: T1, mPGES-1; assay: A549 cell-based assay (PGE2 formation, IL-1β stimulated, 50% human serum); parameters: host or cells: A549 cells
# Experimental: Although the enzymatic assay is a high throughput assay the disadvantage is that it uses a recombinant protein which is not in its natural environment. Accordingly a cellular assay was established in which a cell line of human origin (A549) expressing the mPGES-1 protein was used. In addition in order to mimic the situation in humans in which compounds can be bound to plasma proteins 50% human serum is added in the assay. By having the combination of testing mPGES-1 in a cellular environment and the presence of 50% human serum this assay has a higher relevance to judge the therapeutic potential of a mPGES-inhibitor than the pure enzyme assay.
# A549 cells (ATCC: CCL-185) are grown to about 90% confluence in F-12K Nutrient Mixture (Kaighn's Mod. Gibco) containing 10% FBS in a humified incubator at 37° C. and 5% CO2. Cells were detached using Trypsin-EDTA. A549 cells were seeded in a 384-well collagene plate at a density of 7000 cells/well (50 μl) in F-12 medium containing 1% Penicillin-Streptomycin and 50% human serum. The cells were allowed to attach for 3-4 h. After that the cells were incubated for 20-24 h in F-12k medium supplemented with 50% human serum, 1% Penicillin-Streptomycin and containing IL-1β at a final concentration of 5 ng/ml as well as 10 nM arachidonic acid in the presence of a vehicle or a test compound. The total volume is 100 μl.
# Concentrations of PGE2 in the cell free medium (10 μl) were measured using a commercially available HTRF kit from Cisbio (as described above). The PGE2 formation in the absence of test compound was taken as 100%.
# IC50 values were derived from at 6-8 point titrations using conventional software.
# [3] = recombinant human mPGES-1 microsomes, PGH2 2 μM, Table A, read-out: mPGES-1 inhibitory effect, IC50, enzyme assay
# [4] = A549 cells, IL-1β 5 ng/ml, 20-24 h, Table B, read-out: mPGES-1 inhibitory effect, IC50, cell assay
# [5] = Table C comparison of enzym and cell IC50, read-out: Enzym IC50
# [6] = Table C comparison of enzym and cell IC50, A549 cells, read-out: Cell IC50
SMILES,IC50 (mPGES-1 [1]; [3]) [nM],IC50 (mPGES-1 [2]; [4]) [nM],IC50 (mPGES-1 [1]; [5]) [nM],IC50 (mPGES-1 [2]; [6]) [nM]
"Cn1c(Nc2cc(CNC(=O)C3(C(F)(F)F)CC3)ccc2Cl)nc2cc(C(=O)N[C@H]3CC[C@H](C(F)(F)F)CC3)c(N3CCC(C(F)(F)F)CC3)nc21 [Example 1, N-(trans-4-Trifluoromethyl-cyclohexyl)-2-{2-chloro-5-[(1-trifluoromethyl-cyclopropyl-carbonylamino)methyl]-phenylamino}-5-[4-trifluoromethyl-piperidinyl]-3-methyl-3H-imidazo[4,5-b]pyridine-6-carboxamide]",5,7,,
"CC(C)(C)OC(=O)NCc1cc(F)c(Cl)c(Nc2nc3cc(C(=O)N[C@H]4CC[C@H](C(F)(F)F)CC4)c(N4CCC(F)CC4)nc3[nH]2)c1Cl [Example 14, N-(trans-4-Trifluoromethyl-cyclohexyl)-2-{2,6-dichloro-5-fluoro-3-[(tert.butoxycarbonylamino)-methyl]-phenylamino}-5-[4-fluoro-piperidinyl]-3H-imidazo[4,5-b]pyridine-6-carboxamide]",35,86,,
"CC(C)(C)C(=O)NCc1ccc(Cl)c(Nc2nc3cc(C(=O)N[C@H]4CC[C@H](C(F)(F)F)CC4)c(N4CCC(F)CC4)nc3[nH]2)c1Cl [Example 3, N-(trans-4-Trifluoromethyl-cyclohexyl)-2-{2,6-dichloro-3-[(2,2-dimethyl-propionylamino)-methyl]-phenylamino}-5-[4-fluoro-piperidinyl]-3H-imidazo[4,5-b]pyridine-6-carboxamide]",3,2,,
Cn1c(Nc2c(Cl)ccc(CNC(=O)C(C)(C)C)c2Cl)nc2cc(C(=O)NCC(F)(F)C(F)(F)F)c(N3CCC(C(F)(F)F)CC3)nc21 [Example 34],2,10,,
CN(CC(F)F)c1nc2[nH]c(Nc3c(Cl)ccc(CNC(=O)C(C)(C)C)c3Cl)nc2cc1C(=O)NCC(F)F [Example 11],10,47,,
Cn1c(Nc2c(Cl)ccc(CNC(=O)C(C)(C)C)c2Cl)nc2cc(C(=O)NC(c3ccccn3)C(F)(F)F)c(N3CCC(C(F)(F)F)CC3)nc21 (stereo not shown) [Example 42],2,4,,
Cn1c(Nc2c(Cl)ccc(CNC(=O)C(C)(C)C)c2Cl)nc2cc(C(=O)NCc3ccc(F)cc3C(F)(F)F)c(N3CCC(C(F)(F)F)CC3)nc21 [Example 38],2,16,,
CN(c1nc2c(cc1C(=O)N[C@H]1CC[C@H](C(F)(F)F)CC1)nc(Nc1c(Cl)ccc(CNC(=O)C(C)(C)C)c1Cl)n2C)C1COC1 [Example 20],2,3,,
"Cn1c(Nc2c(Cl)ccc(CNC(=O)C(C)(C)C)c2Cl)nc2cc(C(=O)N[C@H]3CC[C@H](C(F)(F)F)CC3)c(N3CCC(F)CC3)nc21 [Example 2, N-(trans-4-Trifluoromethyl-cyclohexyl)-2-{2,6-dichloro-3-[(2,2-dimethyl-propionylamino)-methyl]-phenylamino}-5-[-fluoro-piperidinyl]-3-methyl-3H-imidazo[4,5-b]pyridine-6-carboxamide]",8,2,,
Cn1c(Nc2cc(CNC(=O)C(C)(C)C)ccc2Cl)nc2cc(C(=O)N[C@H]3CC[C@H](C(F)(F)F)CC3)c(OCC(F)(F)F)cc21 [reference compound],,,8,89
CN(CC1(C)COC1)c1nc2c(cc1C(=O)N[C@H]1CC[C@H](C(F)(F)F)CC1)nc(Nc1c(Cl)ccc(CNC(=O)C(C)(C)C)c1Cl)n2C [Example 22],3,15,,
CN(CC(F)F)c1nc2[nH]c(Nc3c(Cl)ccc(CNC(=O)C(C)(C)C)c3Cl)nc2cc1C(=O)N[C@H]1CC[C@H](C(F)(F)F)CC1 [Example 4],1,3,,
Cn1c(Nc2c(Cl)ccc(CNC(=O)C(C)(C)C)c2Cl)nc2cc(C(=O)Nc3cccc(OC(F)(F)F)c3)c(N3CCC(C(F)(F)F)CC3)nc21 [Example 40],3,13,,
Cn1c(Nc2c(F)cccc2Cl)nc2cc(C(=O)Nc3ccc(Br)cc3)c(OCC(F)F)nc21 [reference compound],,,2,72
"CC(C)(C)C(=O)NCc1cc(F)c(Cl)c(Nc2nc3cc(C(=O)N[C@H]4CC[C@H](C(F)(F)F)CC4)c(N4CCC(F)CC4)nc3[nH]2)c1Cl [Example 15, N-(trans-4-Trifluoromethyl-cyclohexyl)-2-{2,6-dichloro-5-fluoro-3-[(2,2-dimethyl-propionylamino)-methyl]-phenylamino}-5-[4-fluoro-piperidinyl]-3H-imidazo[4,5-b]pyridine-6-carboxamide]",2,10,,
Cn1c(Nc2c(Cl)ccc(CNC(=O)C(C)(C)C)c2Cl)nc2cc(C(=O)NCC(F)(F)F)c(N3CCC(C(F)(F)F)CC3)nc21 [Example 32],4,12,,
CC(C)(C)C(=O)NCc1ccc(Cl)c(Nc2nc3cc(C(=O)N[C@H]4CC[C@H](C(F)(F)F)CC4)c(N4CC[C@H](F)C4)nc3[nH]2)c1Cl [Example 8],2,11,,
CN(Cc1nncn1C)c1nc2c(cc1C(=O)N[C@H]1CC[C@H](C(F)(F)F)CC1)nc(Nc1c(Cl)ccc(CNC(=O)C(C)(C)C)c1Cl)n2C [Example 21],4,90,,
Cn1c(Nc2c(Cl)ccc(CNC(=O)C(C)(C)C)c2Cl)nc2cc(C(=O)N[C@H]3CC[C@H](C(F)(F)F)CC3)c(N(CC3CC3)C3CC3)nc21 [Example 23],1,5,,
CC(C)(C)C(=O)NCc1ccc(Cl)c(Nc2nc3cc(C(=O)N[C@H]4CC[C@H](C(F)(F)F)CC4)c(N4CCC(F)(F)C4)nc3[nH]2)c1Cl [Example 9],2,6,,
